Source: PubChem BioAssay (NCI)
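Method: 48-hour compound exposure of cells in 96-well plates, five concentrations, linear interpolation of endpoints. Definition used: TGI = concentration required for complete inhibition of growth.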

How the values were obtained:
Experiment in all cases: NCI-60 cell line screen, 48 h
[1] = test system: KM20L2 colon
[2] = test system: HCC-2998 colon
[3] = test system: MOLT-4 leukemia
[4] = test system: SNB-19 CNS
[5] = test system: SNB-75 CNS
[6] = test system: UACC-257 melanoma
[7] = test system: SK-MEL-2 melanoma
[8] = test system: RXF 393 renal
[9] = test system: UO-31 renal
[10] = test system: RXF-631 renal
[11] = test system: SW-620 colon
[12] = test system: OVCAR-3 ovarian
[13] = test system: A549 NSCLC
[14] = test system: ACHN renal
[15] = test system: LOX IMVI melanoma
[16] = test system: U251 CNS
[17] = test system: EKVX NSCLC
[18] = test system: CAKI-1 renal
[19] = test system: M14 melanoma
[20] = test system: NCI-H226 lung
[21] = test system: DMS 273 small cell lung
[22] = test system: TK-10 renal
[23] = test system: COLO 205 colon
[24] = test system: DMS 114 small cell lung
[25] = test system: NCI-H460 lung
[26] = test system: HOP-18 NSCLC
[27] = test system: OVCAR-5 ovarian
[28] = test system: SN12C renal
[29] = test system: CCRF-CEM leukemia
[30] = test system: M19-MEL melanoma
[31] = test system: SF-539 CNS
[32] = test system: LXFL 529 NSCLC
[33] = test system: KM12 colon
[34] = test system: HL-60(TB) leukemia
[35] = test system: HOP-62 NSCLC
[36] = test system: NCI-H23 lung
[37] = test system: UACC-62 melanoma
[38] = test system: RPMI-8226 leukemia
[39] = test system: HCT-15 colon
[40] = test system: HOP-92 NSCLC
[41] = test system: SF-295 CNS
[42] = test system: SK-MEL-5 melanoma
[43] = test system: HT29 colon
[44] = test system: OVCAR-8 ovarian
[45] = test system: MALME-3M melanoma
[46] = test system: A498 renal
[47] = test system: SF-268 CNS
[48] = test system: SK-MEL-28 melanoma
[49] = test system: OVCAR-4 ovarian
[50] = test system: NCI-H522 lung
[51] = test system: 786-0 renal
[52] = test system: K-562 leukemia
[53] = test system: SK-OV-3 ovarian
[54] = test system: IGROV1 ovarian
[55] = test system: HCT-116 colon
[56] = test system: XF 498 CNS
[57] = test system: SR leukemia
[58] = test system: DLD-1 colon

Measured: TGI

CC(C)OC(=O)c1cc(NC(=O)C(C)(C)C)c(F)cc1Cl
not listed: [57] | [58]
> 100 µM: all other assays above

C(=C\c1cc(CCc2nc3ccccc3[nH]2)[nH]n1)/c1ccccc1
not listed: [7] | [21] | [32]
> 100 µM: all other assays above
